{
  "source": "patent US9695155B2",
  "about": "“Herbicidal substituted pyrimidinyloxy benzene compounds” (E. I. DU PONT DE NEMOURS AND COMPANY, priority 2013, dated 2017)",
  "key": {"[1]": {"tested_on": "pigweed", "assay": "Test A preemergence", "type": "in vivo, Amaranthus retroflexus", "method_in_brief": "(§1)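 Visual injury scored 0–100 (100 = complete control) against untreated controls about 10 days after treatment in a greenhouse. Test chemicals, formulated with surfactant in non-phytotoxic solvent, were sprayed on soil preemergence or on 2-10 cm, one- to two-leaf plants postemergence.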"}, "[2]": {"tested_on": "rice", "assay": "Test C flooded paddy test", "type": "in vivo, Oryza sativa", "conditions": "Flood, scale 0 to 100 (0 no effect, 100 complete control), 13 to 15 days", "description": "(§2) At time of treatment, test pots were flooded to 3 cm above the soil surface, treated by application of test compounds directly to the paddy water, and then maintained at that water depth for the duration of the test. Treated plants and controls were maintained in a greenhouse for 13 to 15 days, after which time all species were compared to controls and visually evaluated. […] A dash (-) response means no test result."}, "[3]": {"tested_on": "barnyardgrass", "assay": "Test A postemergence", "type": "in vivo, Echinochloa crus-galli", "method_in_brief": "as §1"}, "[4]": {"tested_on": "sedge, umbrella", "assay": "Test B flooded paddy test", "type": "in vivo, Cyperus difformis", "conditions": "Flood, 250 g ai/ha; 0 to 100 scale where 0 is no effect and 100 is complete control", "method_in_brief": "(§3)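 2-leaf stage plants; pots flooded to 3 cm, compound added to paddy water, depth maintained. Greenhouse 13–15 d. Visual rating vs untreated controls, 0 (no effect) to 100 (complete control); dash = no result.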"}, "[5]": {"tested_on": "Heteranthera limosa", "assay": "Test B flooded paddy test", "type": "in vivo", "conditions": "Flood, 250 g ai/ha; 0 to 100 scale where 0 is no effect and 100 is complete control", "method_in_brief": "as §3"}, "[6]": {"tested_on": "barnyardgrass", "assay": "Test B flooded paddy test", "type": "in vivo, Echinochloa crus-galli", "conditions": "Flood, 250 g ai/ha; 0 to 100 scale where 0 is no effect and 100 is complete control", "method_in_brief": "as §3"}, "[7]": {"tested_on": "morningglory", "assay": "Test A preemergence", "type": "in vivo, Ipomoea spp.", "method_in_brief": "as §1"}, "[8]": {"tested_on": "corn", "assay": "Test A postemergence", "type": "in vivo, Zea mays", "method_in_brief": "as §1"}, "[9]": {"tested_on": "giant foxtail", "assay": "Test A postemergence", "type": "in vivo, Setaria faberii", "method_in_brief": "as §1"}, "[10]": {"tested_on": "ducksalad", "assay": "Test C flooded paddy test", "type": "in vivo, Heteranthera limosa", "conditions": "Flood, scale 0 to 100 (0 no effect, 100 complete control), 13 to 15 days", "description": "as §2"}, "[11]": {"tested_on": "velvetleaf", "assay": "Test A postemergence", "type": "in vivo, Abutilon theophrasti", "method_in_brief": "as §1"}, "[12]": {"tested_on": "giant foxtail", "assay": "Test A preemergence", "type": "in vivo, Setaria faberii", "method_in_brief": "as §1"}, "[13]": {"tested_on": "corn", "assay": "Test A preemergence", "type": "in vivo, Zea mays", "method_in_brief": "as §1"}, "[14]": {"tested_on": "large (Lg) crabgrass", "assay": "Test A preemergence", "type": "in vivo, Digitaria sanguinalis", "method_in_brief": "as §1"}, "[15]": {"tested_on": "sedge, umbrella", "assay": "Test C flooded paddy test", "type": "in vivo, Cyperus difformis", "conditions": "Flood, scale 0 to 100 (0 no effect, 100 complete control), 13 to 15 days", "description": "as §2"}, "[16]": {"tested_on": "velvetleaf", "assay": "Test A preemergence", "type": "in vivo, Abutilon theophrasti", "method_in_brief": "as §1"}, "[17]": {"tested_on": "morningglory", "assay": "Test A postemergence", "type": "in vivo, Ipomoea spp.", "method_in_brief": "as §1"}, "[18]": {"tested_on": "wheat", "assay": "Test A preemergence", "type": "in vivo, Triticum aestivum", "method_in_brief": "as §1"}, "[19]": {"tested_on": "pigweed", "assay": "Test A postemergence", "type": "in vivo, Amaranthus retroflexus", "method_in_brief": "as §1"}, "[20]": {"tested_on": "barnyardgrass", "assay": "Test C flooded paddy test", "type": "in vivo, Echinochloa crus-galli", "conditions": "Flood, scale 0 to 100 (0 no effect, 100 complete control), 13 to 15 days", "description": "as §2"}, "[21]": {"tested_on": "large (Lg) crabgrass", "assay": "Test A postemergence", "type": "in vivo, Digitaria sanguinalis", "method_in_brief": "as §1"}, "[22]": {"tested_on": "barnyardgrass", "assay": "Test A preemergence", "type": "in vivo, Echinochloa crus-galli", "method_in_brief": "as §1"}, "[23]": {"tested_on": "rice", "assay": "Test B flooded paddy test", "type": "in vivo, Oryza sativa", "conditions": "Flood, 250 g ai/ha; 0 to 100 scale where 0 is no effect and 100 is complete control", "method_in_brief": "as §3"}, "[24]": {"tested_on": "wheat", "assay": "Test A postemergence", "type": "in vivo, Triticum aestivum", "method_in_brief": "as §1"}, "[25]": {"conditions": "125 g ai/ha, 0 to 100 scale where 0 is no effect and 100 is complete control"}, "[26]": {"conditions": "500 g ai/ha, 0 to 100 scale, 0 no effect, 100 complete control, approx. 10 days"}, "[27]": {"conditions": "500 g ai/ha, 0 to 100 scale, 0 no effect, 100 complete control"}},
  "data": [
    {"smiles": "Brc1cnc(Oc2ccccc2-n2cc(Br)cn2)nc1", "note": "[Compound 8]", "values": [
      {"measurement": "Pigweed plant response rating", "setting": "[1]; [25]", "result": 90},
      {"measurement": "Pigweed plant response rating", "setting": "[1]; [26]", "result": 100},
      {"measurement": "Plant response rating, Rice", "setting": "[2]; 31 g ai/ha", "result": 0},
      {"measurement": "Plant response rating, Rice", "setting": "[2]; 62 g ai/ha", "result": 0},
      {"measurement": "Plant response rating, Rice", "setting": "[2]; 125 g ai/ha", "result": 10},
      {"measurement": "Plant response rating, Rice", "setting": "[2]; 250 g ai/ha", "result": 10},
      {"measurement": "Plant response rating, Barnyardgrass", "setting": "[3]; [25]", "result": 30},
      {"measurement": "Plant response rating, Barnyardgrass", "setting": "[3]; [27]", "result": 90},
      {"measurement": "Plant response rating, Sedge, Umbrella", "setting": "[4]", "result": 80},
      {"measurement": "Plant response rating, Ducksalad", "setting": "[5]", "result": 100},
      {"measurement": "Plant response rating, Barnyardgrass", "setting": "[6]", "result": 0},
      {"measurement": "Morningglory plant response rating", "setting": "[7]; [25]", "result": 20},
      {"measurement": "Morningglory plant response rating", "setting": "[7]; [26]", "result": 30},
      {"measurement": "Plant response rating, Corn", "setting": "[8]; [25]", "result": 0},
      {"measurement": "Plant response rating, Corn", "setting": "[8]; [27]", "result": 30},
      {"measurement": "Plant response rating, Foxtail, Giant", "setting": "[9]; [25]", "result": 50},
      {"measurement": "Plant response rating, Foxtail, Giant", "setting": "[9]; [27]", "result": 90},
      {"measurement": "Plant response rating, Ducksalad", "setting": "[10]; 31 g ai/ha", "result": 0},
      {"measurement": "Plant response rating, Ducksalad", "setting": "[10]; 62 g ai/ha", "result": 40},
      {"measurement": "Plant response rating, Ducksalad", "setting": "[10]; 125 g ai/ha", "result": 50},
      {"measurement": "Plant response rating, Ducksalad", "setting": "[10]; 250 g ai/ha", "result": 70},
      {"measurement": "Plant response rating, Velvetleaf", "setting": "[11]; [25]", "result": 100},
      {"measurement": "Plant response rating, Velvetleaf", "setting": "[11]; [27]", "result": 100},
      {"measurement": "Foxtail, Giant plant response rating", "setting": "[12]; [25]", "result": 70},
      {"measurement": "Foxtail, Giant plant response rating", "setting": "[12]; [26]", "result": 100},
      {"measurement": "Corn plant response rating", "setting": "[13]; [25]", "result": 0},
      {"measurement": "Corn plant response rating", "setting": "[13]; [26]", "result": 0},
      {"measurement": "Crabgrass, Large plant response rating", "setting": "[14]; [25]", "result": 80},
      {"measurement": "Crabgrass, Large plant response rating", "setting": "[14]; [26]", "result": 100},
      {"measurement": "Plant response rating, Sedge, Umbrella", "setting": "[15]; 31 g ai/ha", "result": 0},
      {"measurement": "Plant response rating, Sedge, Umbrella", "setting": "[15]; 62 g ai/ha", "result": 50},
      {"measurement": "Plant response rating, Sedge, Umbrella", "setting": "[15]; 125 g ai/ha", "result": 75},
      {"measurement": "Plant response rating, Sedge, Umbrella", "setting": "[15]; 250 g ai/ha", "result": 85},
      {"measurement": "Velvetleaf plant response rating", "setting": "[16]; [25]", "result": 100},
      {"measurement": "Velvetleaf plant response rating", "setting": "[16]; [26]", "result": 100},
      {"measurement": "Plant response rating, Morningglory", "setting": "[17]; [25]", "result": 70},
      {"measurement": "Plant response rating, Morningglory", "setting": "[17]; [27]", "result": 100},
      {"measurement": "Wheat plant response rating", "setting": "[18]; [25]", "result": 0},
      {"measurement": "Wheat plant response rating", "setting": "[18]; [26]", "result": 0},
      {"measurement": "Plant response rating, Pigweed", "setting": "[19]; [25]", "result": 100},
      {"measurement": "Plant response rating, Pigweed", "setting": "[19]; [27]", "result": 100},
      {"measurement": "Plant response rating, Barnyardgrass", "setting": "[20]; 31 g ai/ha", "result": 0},
      {"measurement": "Plant response rating, Barnyardgrass", "setting": "[20]; 62 g ai/ha", "result": 0},
      {"measurement": "Plant response rating, Barnyardgrass", "setting": "[20]; 125 g ai/ha", "result": 0},
      {"measurement": "Plant response rating, Barnyardgrass", "setting": "[20]; 250 g ai/ha", "result": 0},
      {"measurement": "Plant response rating, Crabgrass, Large", "setting": "[21]; [25]", "result": 50},
      {"measurement": "Plant response rating, Crabgrass, Large", "setting": "[21]; [27]", "result": 90},
      {"measurement": "Barnyardgrass plant response rating", "setting": "[22]; [25]", "result": 50},
      {"measurement": "Barnyardgrass plant response rating", "setting": "[22]; [26]", "result": 90},
      {"measurement": "Plant response rating, Rice", "setting": "[23]", "result": 30},
      {"measurement": "Plant response rating, Wheat", "setting": "[24]; [25]", "result": 0},
      {"measurement": "Plant response rating, Wheat", "setting": "[24]; [27]", "result": 20}
    ]}
  ]
}
